In paper PMC7288171, “Synergistic Effects of Thiosemicarbazides with Clinical Drugs against S. aureus” (Molecules, 2020):
Values after ≈ are worked out from the molar mass of the structure shown.

What was measured:
[1] = tested on: S. aureus ATCC 25923; assay: Checkerboard broth dilution synergy assay; type: cell-based
How it was run: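 Checkerboard broth microdilution against S. aureus ATCC 25923 paired each thiosemicarbazide with amoxicillin, gentamicin, levofloxacin, linezolid or vancomycin. FICI is the sum of each drug's MIC in combination divided by its MIC alone: ≤0.5 synergy, 0.5–1 additive, 1–4 indifferent, ≥4 antagonism.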

[2] = tested on: S. aureus ATCC 6538; parameters: method as in PMID 25897586; settings: S. a. ATCC 6538; compounds 1–5; cited from earlier work
[3] = tested on: human foreskin fibroblast Hs27 cells (CRL-1634); assay: MTT cytotoxicity assay; type: cell-based; settings: Homo sapiens, 24 h of treatment
[4] = MTT cytotoxicity assay; type: cell-based, human; settings: human, Hs27 foreskin fibroblast cells (ATCC CRL-1634), 25 µg/mL, 24 h, vehicle control = 100%
[5] = tested on: MSSA-2; assay: MIC, clinical isolate of S. aureus; type: cell-based; settings: Staphylococcus aureus; clinical isolate MSSA-2; read-out: MIC
How it was run: (§1)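 Activity of thiosemicarbazides was measured on standard Gram-positive ATCC cultures and on hospital-derived S. aureus isolates. Five clinical antibiotics served as comparators: amoxicillin, gentamicin, levofloxacin, linezolid and vancomycin.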

[6] = tested on: MRSA-1; assay: MIC, clinical isolate of S. aureus; type: cell-based; settings: Staphylococcus aureus; clinical isolate MRSA-1; read-out: MIC
How it was run: as §1

[7] = tested on: MSSA-3; assay: MIC, clinical isolate of S. aureus; type: cell-based; settings: Staphylococcus aureus; clinical isolate MSSA-3; read-out: MIC
How it was run: as §1

[8] = tested on: MSSA-4; assay: MIC, clinical isolate of S. aureus; type: cell-based; settings: Staphylococcus aureus; clinical isolate MSSA-4; read-out: MIC
How it was run: as §1

[9] = tested on: MSSA-1; assay: MIC, clinical isolate of S. aureus; type: cell-based; settings: Staphylococcus aureus; clinical isolate MSSA-1; read-out: MIC
How it was run: as §1

[10] = tested on: HeLa cell line; parameters: method as in PMID 25897586; settings: IC30 = 30% or greater destruction of cells; cited from earlier work
[11] = tested on: B. cereus ATCC 10876; parameters: method as in PMID 25897586; settings: B. c. ATCC 10876; compounds 1–5; cited from earlier work
[12] = tested on: HeLa cell line; assay: Cytotoxicity (earlier study); type: cell-based; settings: HeLa IC30 / MIC S. aureus ATCC 25923
Text: (§2) For the compound with the best solubility (2), its cytotoxicity against L929 and HeLa cells was presented previously. The cytotoxicity was expressed as rigorous IC30 values, defined as the highest dilutions of test samples that cause 30% or greater destruction of cells.

[13] = tested on: L929 cell line; assay: Cytotoxicity (earlier study); type: cell-based; settings: L929 IC30 / MIC S. aureus ATCC 25923
Text: as §2

[14] = tested on: L929 cell line; parameters: method as in PMID 25897586; settings: IC30 = 30% or greater destruction of cells; cited from earlier work
[15] = tested on: M. luteus ATCC 10240; parameters: method as in PMID 25897586; settings: M. l. ATCC 10240; compounds 1–5; cited from earlier work
[16] = tested on: S. epidermidis ATCC 12228; parameters: method as in PMID 25897586; settings: S. e. ATCC 12228; compounds 1–5; cited from earlier work
[17] = tested on: B. subtilis ATCC 6633; parameters: method as in PMID 25897586; settings: B. s. ATCC 6633; compounds 1–5; cited from earlier work
[18] = tested on: S. aureus ATCC 25923; parameters: method as in PMID 25897586; settings: S. a. ATCC 25923; compounds 1–5; cited from earlier work

## Cc1cccc(C(=O)NC(=S)NNC(=O)c2cccc(Cl)c2Cl)c1 [compound 2]
[1]; combination with amoxicillin
  interaction in combination: additive
[1]; combination with gentamicin
  interaction in combination: no interactions
[1]; combination with levofloxacin
  interaction in combination: no interactions
[1]; combination with linezolid
  interaction in combination: synergistic
[1]; combination with vancomycin
  interaction in combination: no interactions
[2]
  MIC: 7.81 µg/mL (≈ 20.4 µM)
[3]
  IC50: > 25 µg/mL
[4]
  viability at 24 h, 25 µg/mL: 76.7%
[5]
  MIC: > 500 µg/mL
[6]
  MIC: 500 µg/mL (≈ 1310 µM)
[7]
  MIC: > 500 µg/mL
[8]
  MIC: 500 µg/mL (≈ 1310 µM)
[9]
  MIC: > 500 µg/mL
[10]
  IC30: 30.97 µg/mL (≈ 81 µM)
[11]
  MIC: 1.95 µg/mL (≈ 5.1 µM)
[12]
  selectivity index SI (SI = IC30/MIC): 3.97
[13]
  selectivity index SI (SI = IC30/MIC): 3.94
[14]
  IC30: 30.78 µg/mL (≈ 80.5 µM)
[15]
  MIC: 0.98 µg/mL (≈ 2.56 µM)
[16]
  MIC: 3.91 µg/mL (≈ 10.2 µM)
[17]
  MIC: 0.49 µg/mL (≈ 1.28 µM)
[18]
  MIC: 7.81 µg/mL (≈ 20.4 µM)
